Legend:
[1] = tested on: normal primary NK cells, pool 3 (3 donors) (IL-2 2.5 ng/mL); assay: drug sensitivity score (DSS) (DSS units); higher = more sensitive; extreme values may be limits of the assay; conditions: 72 h
YT (IL-2 2.5 ng/mL) [2] = assay: as above; conditions: 72 h
SNK-6 (IL-2 2.5 ng/mL) [3] = assay: as above; conditions: 72 h
IMC-1 (IL-2 20 ng/mL) [4] = assay: as above; conditions: 72 h
NK-YS (IL-2 2.5 ng/mL) [5] = assay: as above; conditions: 72 h
KAI3 (IL-2 2.5 ng/mL) [6] = assay: as above; conditions: 72 h
[7] = tested on: normal primary NK cells, pool 1 (3 donors) (IL-2 2.5 ng/mL); assay: as above; conditions: 72 h
NK-92 (IL-2 2.5 ng/mL) [8] = assay: as above; conditions: 72 h
NKL (IL-2 2.5 ng/mL) [9] = assay: as above; conditions: 72 h
[10] = tested on: normal primary NK cells, pool 1 (3 donors), resting (IL-2 0 ng/mL); assay: as above; conditions: 72 h
DERL-7 (IL-2 2.5 ng/mL) [11] = assay: as above; conditions: 72 h
[12] = tested on: normal primary NK cells, pool 2 (3 donors) (IL-2 2.5 ng/mL); assay: as above; conditions: 72 h
KHYG-1 (IL-2 2.5 ng/mL) [13] = assay: as above; conditions: 72 h
[14] = tested on: normal NK cells expanded with K562-aAPC; assay: as above; conditions: 72 h; IL-2 2.5 ng/mL
Procedure: (§1)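 Drug sensitivity and resistance testing on K562-aAPC-expanded normal NK cells: 5 concentrations (10-fold steps over a 10,000-fold range), 72 h at 37 °C, viability by CellTiter-Glo normalised to DMSO and benzethonium chloride controls; DSS from the fitted curve.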

[15] = tested on: normal NK cells expanded with K562-aAPC; assay: percent inhibition of viability; higher = more inhibition; conditions: 72 h, IL-2 2.5 ng/mL
Procedure: as §1

[16] = tested on: normal primary NK cells, pool 3 (3 donors) (IL-2 2.5 ng/mL); assay: as above; conditions: 72 h
YT (IL-2 2.5 ng/mL) [17] = assay: as above; conditions: 72 h
SNK-6 (IL-2 2.5 ng/mL) [18] = assay: as above; conditions: 72 h
IMC-1 (IL-2 20 ng/mL) [19] = assay: as above; conditions: 72 h
NK-YS (IL-2 2.5 ng/mL) [20] = assay: as above; conditions: 72 h
KAI3 (IL-2 2.5 ng/mL) [21] = assay: as above; conditions: 72 h
[22] = tested on: normal primary NK cells, pool 1 (3 donors) (IL-2 2.5 ng/mL); assay: as above; conditions: 72 h
NK-92 (IL-2 2.5 ng/mL) [23] = assay: as above; conditions: 72 h
NKL (IL-2 2.5 ng/mL) [24] = assay: as above; conditions: 72 h
[25] = tested on: normal primary NK cells, pool 1 (3 donors), resting (IL-2 0 ng/mL); assay: as above; conditions: 72 h
DERL-7 (IL-2 2.5 ng/mL) [26] = assay: as above; conditions: 72 h
[27] = tested on: normal primary NK cells, pool 2 (3 donors) (IL-2 2.5 ng/mL); assay: as above; conditions: 72 h
KHYG-1 (IL-2 2.5 ng/mL) [28] = assay: as above; conditions: 72 h

C[C@]1(c2nc3c(C(N)=O)cccc3[nH]2)CCCN1 [Veliparib] (max concentration tested 10000 nM)
Conditions	drug sensitivity score
DERL-7 (IL-2 2.5 ng/mL) [11]	0.78
IMC-1 (IL-2 20 ng/mL) [4]	0
KAI3 (IL-2 2.5 ng/mL) [6]	3.29
KHYG-1 (IL-2 2.5 ng/mL) [13]	0.01
NK-92 (IL-2 2.5 ng/mL) [8]	0.6
NK-YS (IL-2 2.5 ng/mL) [5]	0.1
NKL (IL-2 2.5 ng/mL) [9]	2.57
SNK-6 (IL-2 2.5 ng/mL) [3]	0.1
YT (IL-2 2.5 ng/mL) [2]	0
[1]	0.16
[7]	3.89
[10]	2.67
[12]	0.16
[14]	0.98

percent inhibition of viability [%]
Conditions	1 nM	10 nM	100 nM	1000 nM	10000 nM
DERL-7 (IL-2 2.5 ng/mL) [26]	1.66	5.22	0.09	-2.95	25.1
IMC-1 (IL-2 20 ng/mL) [19]	1	0.9	0.37	0.91	1.79
KAI3 (IL-2 2.5 ng/mL) [21]	1.98	-0.92	-2.55	12.1	34.3
KHYG-1 (IL-2 2.5 ng/mL) [28]	-11.7	-8.12	-8.94	-3.41	12
NK-92 (IL-2 2.5 ng/mL) [23]	7.45	4.92	2.84	-4.04	22.9
NK-YS (IL-2 2.5 ng/mL) [20]	-6.78	-8.37	-8.01	-6.17	14.8
NKL (IL-2 2.5 ng/mL) [24]	-2.87	-3.94	-5.59	4.18	38.6
SNK-6 (IL-2 2.5 ng/mL) [18]	3.66	1.93	-13.1	-1.7	13.8
YT (IL-2 2.5 ng/mL) [17]	1.3	-1.34	0.84	-0.22	3.43
[15]	3.32	0.6	3.03	3.27	19.4
[16]	-3.03	-1.96	-0.62	-3.1	15.2
[22]	-7.43	1.5	2.84	7.25	50.4
[25]	-8.38	-4.44	2.95	-4.91	56.4
[27]	-7.51	-2.4	-4.92	-8.11	16.4

COc1cc2nccc(Oc3ccc(NC(=O)Nc4cc(C)on4)c(Cl)c3)c2cc1OC [Tivozanib] (max concentration tested 10000 nM)
Conditions	drug sensitivity score
DERL-7 (IL-2 2.5 ng/mL) [11]	4.63
IMC-1 (IL-2 20 ng/mL) [4]	1.23
KAI3 (IL-2 2.5 ng/mL) [6]	2.57
KHYG-1 (IL-2 2.5 ng/mL) [13]	4.48
NK-92 (IL-2 2.5 ng/mL) [8]	11.5
NK-YS (IL-2 2.5 ng/mL) [5]	5.65
NKL (IL-2 2.5 ng/mL) [9]	3.83
SNK-6 (IL-2 2.5 ng/mL) [3]	8.55
YT (IL-2 2.5 ng/mL) [2]	5.67
[1]	0
[7]	2.94
[10]	6.37
[12]	1.08
[14]	0

percent inhibition of viability [%]
Conditions	1 nM	10 nM	100 nM	1000 nM	10000 nM
DERL-7 (IL-2 2.5 ng/mL) [26]	6.25	-4.07	8.65	3.71	74.2
IMC-1 (IL-2 20 ng/mL) [19]	0.39	1.69	-1.08	4.81	20.3
KAI3 (IL-2 2.5 ng/mL) [21]	0.42	12.7	7.97	8.25	33.2
KHYG-1 (IL-2 2.5 ng/mL) [28]	2.06	3.29	1.48	11.4	50.2
NK-92 (IL-2 2.5 ng/mL) [23]	17.7	7.65	22.3	42.5	71
NK-YS (IL-2 2.5 ng/mL) [20]	-1.25	1.72	3.3	12.8	64.8
NKL (IL-2 2.5 ng/mL) [24]	-0.1	-11	-5.13	8.13	47.4
SNK-6 (IL-2 2.5 ng/mL) [18]	0.59	1.54	-8.58	41.8	65.3
YT (IL-2 2.5 ng/mL) [17]	8.31	9.93	8.18	19.9	61.6
[15]	-1.14	-3.52	-0.12	3.67	-4.22
[16]	8.53	3.31	5.07	0.75	3.16
[22]	-3.27	-5.56	-13	7.21	36.9
[25]	5.37	-0.35	5.84	18.5	67.5
[27]	5.79	7.02	3.11	-2.45	29.2

Source: the supplement of paper PMC5908809
